Laboratory results as given in patent US20030017519A1, “Electrochemical enzyme assay” (priority 1993, published 2003).

Experiment: Electrochemical characteristics of β-galactosidase labeled substrates and their cleaved labels
Format: physicochemical
Settings: for Reversible?: electrochemical reversibility, per oxidation potential listed; for Elec. Active?: scanned in the potential range −0.6 V to +1.0 V vs. Ag/AgCl
Description: When cleaved from the substrate, the label should be electrochemically active in this same potential range.

Row | Compound | Reversible? | Elec. Active? | electrochemical activity at the measurement potential (before and after cleavage) | Eox vs. Ag/AGCL [V]
1 | OCCOCCOCCOc1ccc(O[C@@H]2O[C@H](CO)[C@H](O)[C@H](O)[C@H]2O)c2ccccc12 | no, no | yes | – | –
2 | COc1ccc(O[C@@H]2O[C@H](CO)[C@H](O)[C@H](O)[C@H]2O)c2ccccc12 | quasi, no | yes | – | –
3 | O=c1ccc2nc3ccc(O[C@@H]4O[C@H](CO)[C@H](O)[C@H](O)[C@H]4O)cc3oc-2c1 [resorufin-β-D-galactopyranoside] | Yes | yes | electrochemically active at the measurement potential before and after cleavage | −0.100
4 | O=c1ccc2nc3ccc(O)cc3oc-2c1 [resorufin] | yes | yes | – | −0.100

Further lines, with some results ahead:

Row | Reversible? | Elec. Active? | Compound | electrochemical activity at the measurement potential (before and after cleavage) | Eox vs. Ag/AGCL [V]
5 | no | yes | OCCOCCOCCOc1ccc(O)c2ccccc12 [4-(1,4,7, 10-tetraoxadecyl)-1-naphthol] | – | –
6 | quasi, no | yes | COc1ccc(O)c2ccccc12 [4-methoxy-1-naphthol] | – | –
7 | – | no | Nc1ccc(O[C@@H]2O[C@H](CO)[C@H](O)[C@H](O)[C@H]2O)cc1 [p-aminophenyl-β-D-galactyopyranoside, p-aminophenyl-β-D-galactopyranoside] | – | –
